Data from patent US7666646B2, “Crystal structure of human Pim-1 kinase protein complexes and binding pockets thereof, and uses thereof in drug design” (priority 2003, dated 2010).
Read-outs that look alike come from different tables or passages of the source.

Legend:
[1] = tested on: PI3K; details: cited from earlier work
[2] = molecular target: Casein kinase 2 (CK2) (Homo sapiens, UniProt P68400); details: Davies et al., supra; read-out: IC50 / potency of Casein kinase 2 inhibition; cited from earlier work
Casein kinase 2 (CK2), sequence (P68400 whole entry): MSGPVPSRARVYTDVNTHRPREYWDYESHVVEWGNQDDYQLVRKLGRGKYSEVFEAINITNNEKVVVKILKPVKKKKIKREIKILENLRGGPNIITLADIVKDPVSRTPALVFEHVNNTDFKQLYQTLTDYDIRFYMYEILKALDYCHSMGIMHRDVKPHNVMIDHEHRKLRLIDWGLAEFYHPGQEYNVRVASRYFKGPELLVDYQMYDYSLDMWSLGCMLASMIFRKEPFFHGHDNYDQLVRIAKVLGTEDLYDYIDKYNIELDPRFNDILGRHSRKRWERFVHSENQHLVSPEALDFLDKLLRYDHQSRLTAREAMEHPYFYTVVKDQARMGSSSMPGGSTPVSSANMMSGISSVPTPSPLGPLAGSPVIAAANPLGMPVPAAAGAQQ

[3] = molecular target: PKA (Homo sapiens, UniProt P17612); details: in the presence of 50 μM LY294002; cited from earlier work
[4] = molecular target: Pim-1 (Homo sapiens, UniProt P11309); test: Coupled-enzyme kinase assay with S6 peptide substrate (Pim-1 IC50 determination); assay type: biochemical
Pim-1, sequence (P11309 whole entry): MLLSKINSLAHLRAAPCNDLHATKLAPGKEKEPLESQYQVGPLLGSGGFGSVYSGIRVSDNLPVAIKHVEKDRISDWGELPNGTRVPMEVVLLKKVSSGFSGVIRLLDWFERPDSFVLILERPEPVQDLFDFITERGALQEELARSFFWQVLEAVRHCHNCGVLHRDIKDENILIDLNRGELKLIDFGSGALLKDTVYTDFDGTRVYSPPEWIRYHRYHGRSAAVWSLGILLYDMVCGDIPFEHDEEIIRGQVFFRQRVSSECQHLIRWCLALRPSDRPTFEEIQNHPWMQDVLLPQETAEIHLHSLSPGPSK
Procedure: The assay was carried out in a total volume of 100 μl in 0.1 M HEPES buffer (pH 7.6) containing 10 mM MgCl2, 2.5 mM phosphoenolpyruvate, 0.2 mM NADH, 30 μg/ml pyruvate kinase, 10 μg/ml lactate dehydrogenase (Roche Diagnostics Corp., Indianapolis, Ind.) and 2 mM DTT in a 96-well plate, and read at 340 nm at 30° C. on a Spectramax spectrophotometer (Molecular Devices, Sunnyvale, Calif.). […] The reaction was started by addition of ATP after 10 minutes pre-incubation of the reaction mixture at 30° C. […] Kinetic analysis was performed by non-linear regression fitting using the program Prism (GraphPad software, San Diego, Calif., USA).

SMILES | IC50 ([1]; Davies et al., Biochem. J. 351: 95-105 (2000), read-out: potency of PI3K inhibition reported by Davies et al.) | IC50 ([1]; Mizuno et al., FEBS Lett. 330: 114-116 (1993) as cited, read-out: IC50 for PI3K, as originally described) | IC50 [2] | reduction of PKA activity [3] | IC50 [4] | potency of Pim-1 inhibition ([4]; panel of kinase inhibitors, refers to Table 1)
O=c1cc(N2CCOCC2)oc2c(-c3ccccc3)cccc12 [LY294002, 2-(4-morpholinyl)-8-phenyl-4H-1-benzopyran-4-one] | […] | […] | 6.9 µM | 9% |  | 
COC(=O)[C@]1(O)C[C@@H]2O[C@@]1(C)n1c3ccccc3c3c4c(c5c6ccccc6n2c5c31)C(=O)NC4 [K-252a] |  |  |  |  | 0.15 µM | sub-micromolar
